In the supplement of paper PMC13386468:

How the values were obtained:
Assay in all cases: IC50 for competition of protein binding to Kinobeads
Settings in all cases: assay detail: Kinobeads competition in P. falciparum blood-stage lysate
UniProt Q8I468 = target: UniProt Q8I468
UniProt Q8IKV8 = target: UniProt Q8IKV8
UniProt Q8IL19 = target: UniProt Q8IL19
UniProt Q8IE85 = target: UniProt Q8IE85
UniProt Q8IIH4 = target: UniProt Q8IIH4
UniProt Q8IJ72 = target: UniProt Q8IJ72
UniProt Q8I2G2 = target: UniProt Q8I2G2
UniProt Q8I4U5 = target: UniProt Q8I4U5
UniProt C6KT25 = target: UniProt C6KT25
UniProt Q8IJ74 = target: UniProt Q8IJ74
UniProt Q8I5X8 = target: UniProt Q8I5X8
UniProt Q8IE18 = target: UniProt Q8IE18
UniProt Q8IAY9 = target: UniProt Q8IAY9
UniProt Q8IKH8 = target: UniProt Q8IKH8
UniProt Q8I3T5 = target: UniProt Q8I3T5
UniProt Q8IJI0 = target: UniProt Q8IJI0
UniProt C0H4R8 = target: UniProt C0H4R8
UniProt Q8IKR1 = target: UniProt Q8IKR1
UniProt C6KSV3 = target: UniProt C6KSV3
UniProt Q8IDD9 = target: UniProt Q8IDD9
UniProt Q8IL94 = target: UniProt Q8IL94
UniProt Q8I298 = target: UniProt Q8I298
UniProt Q8IEQ1 = target: UniProt Q8IEQ1
UniProt Q8IKF6 = target: UniProt Q8IKF6
UniProt Q8I467 = target: UniProt Q8I467
UniProt Q8I5E2 = target: UniProt Q8I5E2
UniProt Q8IIJ8 = target: UniProt Q8IIJ8
UniProt Q8ID50 = target: UniProt Q8ID50
UniProt Q8I3U9 = target: UniProt Q8I3U9
UniProt Q8I5C5 = target: UniProt Q8I5C5
UniProt Q8IM10 = target: UniProt Q8IM10
UniProt Q8I367 = target: UniProt Q8I367
UniProt Q8I3T9 = target: UniProt Q8I3T9
UniProt Q8IJC7 = target: UniProt Q8IJC7
UniProt Q8I2W3 = target: UniProt Q8I2W3
UniProt O77306 = target: UniProt O77306
UniProt Q8I283 = target: UniProt Q8I283
UniProt C6KTC6 = target: UniProt C6KTC6
UniProt Q8IJE1 = target: UniProt Q8IJE1
UniProt Q8ILP3 = target: UniProt Q8ILP3
UniProt Q8II61 = target: UniProt Q8II61
UniProt Q8IJZ9 = target: UniProt Q8IJZ9
UniProt C6KT50 = target: UniProt C6KT50
UniProt Q9TY94 = target: UniProt Q9TY94
UniProt Q8IJP3 = target: UniProt Q8IJP3
UniProt Q8I1N8 = target: UniProt Q8I1N8
UniProt Q8II79 = target: UniProt Q8II79
UniProt O97282 = target: UniProt O97282
UniProt Q8IE43 = target: UniProt Q8IE43
UniProt Q76NM3 = target: UniProt Q76NM3
UniProt Q8ILR7 = target: UniProt Q8ILR7
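Also: native unpurified kinases from lysate captured on beads bearing immobilized kinase inhibitors, with bead-bound kinases quantified by mass spectrometry across compound doses.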

Sequence of UniProt Q8ILP3 (Q8ILP3 whole entry): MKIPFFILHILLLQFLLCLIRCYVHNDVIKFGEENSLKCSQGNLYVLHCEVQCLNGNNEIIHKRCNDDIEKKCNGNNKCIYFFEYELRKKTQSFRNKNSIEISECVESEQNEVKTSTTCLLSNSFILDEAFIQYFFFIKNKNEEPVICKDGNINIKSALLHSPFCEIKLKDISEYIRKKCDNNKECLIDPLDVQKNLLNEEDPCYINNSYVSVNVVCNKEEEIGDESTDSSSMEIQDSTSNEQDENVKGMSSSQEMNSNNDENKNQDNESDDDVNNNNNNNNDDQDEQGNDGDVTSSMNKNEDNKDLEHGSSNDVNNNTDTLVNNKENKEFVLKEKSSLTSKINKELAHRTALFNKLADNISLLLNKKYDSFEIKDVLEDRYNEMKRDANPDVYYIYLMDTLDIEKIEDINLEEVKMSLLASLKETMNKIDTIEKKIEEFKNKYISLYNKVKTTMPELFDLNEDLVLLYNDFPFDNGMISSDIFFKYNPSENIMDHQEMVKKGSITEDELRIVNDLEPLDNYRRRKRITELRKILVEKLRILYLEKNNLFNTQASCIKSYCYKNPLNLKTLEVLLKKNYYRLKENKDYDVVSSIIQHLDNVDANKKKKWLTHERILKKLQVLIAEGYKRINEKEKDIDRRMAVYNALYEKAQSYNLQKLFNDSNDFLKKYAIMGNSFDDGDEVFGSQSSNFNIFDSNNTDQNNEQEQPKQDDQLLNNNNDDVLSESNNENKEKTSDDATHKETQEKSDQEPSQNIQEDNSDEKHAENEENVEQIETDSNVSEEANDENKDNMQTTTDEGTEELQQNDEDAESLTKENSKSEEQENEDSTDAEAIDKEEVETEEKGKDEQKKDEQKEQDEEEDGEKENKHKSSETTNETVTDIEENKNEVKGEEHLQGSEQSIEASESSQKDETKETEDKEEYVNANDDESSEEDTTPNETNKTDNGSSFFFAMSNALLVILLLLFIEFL
Sequence of UniProt Q8I467 (Q8I467 whole entry): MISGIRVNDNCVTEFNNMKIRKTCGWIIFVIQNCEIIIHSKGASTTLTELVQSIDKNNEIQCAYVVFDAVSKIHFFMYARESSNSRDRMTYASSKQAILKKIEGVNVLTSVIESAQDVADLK
Sequence of UniProt C6KT50 (C6KT50 whole entry): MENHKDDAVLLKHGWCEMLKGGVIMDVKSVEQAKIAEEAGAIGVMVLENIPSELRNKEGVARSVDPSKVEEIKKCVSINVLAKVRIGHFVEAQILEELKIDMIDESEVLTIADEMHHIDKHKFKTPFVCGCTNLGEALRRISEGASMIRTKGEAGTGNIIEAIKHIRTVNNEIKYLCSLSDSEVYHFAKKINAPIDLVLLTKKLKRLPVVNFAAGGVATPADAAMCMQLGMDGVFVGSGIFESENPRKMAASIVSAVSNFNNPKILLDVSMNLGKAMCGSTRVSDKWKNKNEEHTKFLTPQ

## O=c1[nH]c2ccc(Cl)cc2c(NC2CN3CCC2CC3)c1-c1nc2ccccc2[nH]1 (stereo unspecified) [CHIR-124]
UniProt Q8I468
  IC50: > 20 µM
UniProt Q8IKV8
  IC50: > 20 µM
UniProt Q8IL19
  IC50: > 20 µM
UniProt Q8IE85
  IC50: > 20 µM
UniProt Q8IIH4
  IC50: > 20 µM
UniProt Q8IJ72
  IC50: > 20 µM
UniProt Q8I2G2
  IC50: > 20 µM
UniProt Q8I4U5
  IC50: > 20 µM
UniProt C6KT25
  IC50: > 20 µM
UniProt Q8IJ74
  IC50: > 20 µM
UniProt Q8I5X8
  IC50: > 20 µM
UniProt Q8IE18
  IC50: > 20 µM
UniProt Q8IAY9
  IC50: > 20 µM
UniProt Q8IKH8
  IC50: > 20 µM
UniProt Q8I3T5
  IC50: > 20 µM
UniProt Q8IJI0
  IC50: > 20 µM
UniProt C0H4R8
  IC50: 5.36 µM
UniProt Q8IKR1
  IC50: > 20 µM
UniProt C6KSV3
  IC50: > 20 µM
UniProt Q8IDD9
  IC50: > 20 µM
UniProt Q8IL94
  IC50: > 20 µM
UniProt Q8I298
  IC50: > 20 µM
UniProt Q8IEQ1
  IC50: > 20 µM
UniProt Q8IKF6
  IC50: > 20 µM
UniProt Q8I467
  IC50: > 20 µM
UniProt Q8I5E2
  IC50: > 20 µM
UniProt Q8IIJ8
  IC50: > 20 µM
UniProt Q8ID50
  IC50: > 20 µM
UniProt Q8I3U9
  IC50: > 20 µM
UniProt Q8I5C5
  IC50: > 20 µM
UniProt Q8IM10
  IC50: > 20 µM
UniProt Q8I367
  IC50: > 20 µM
UniProt Q8I3T9
  IC50: > 20 µM
UniProt Q8IJC7
  IC50: > 20 µM
UniProt Q8I2W3
  IC50: > 20 µM
UniProt O77306
  IC50: > 20 µM
UniProt Q8I283
  IC50: > 20 µM
UniProt C6KTC6
  IC50: > 20 µM
UniProt Q8IJE1
  IC50: > 20 µM
UniProt Q8ILP3
  IC50: > 20 µM
UniProt Q8II61
  IC50: > 20 µM
UniProt Q8IJZ9
  IC50: > 20 µM
UniProt C6KT50
  IC50: > 20 µM
UniProt Q9TY94
  IC50: > 20 µM
UniProt Q8IJP3
  IC50: > 20 µM
UniProt Q8I1N8
  IC50: > 20 µM
UniProt Q8II79
  IC50: > 20 µM
UniProt O97282
  IC50: > 20 µM
UniProt Q8IE43
  IC50: > 20 µM
UniProt Q76NM3
  IC50: > 20 µM
UniProt Q8ILR7
  IC50: > 20 µM
